Laboratory results published in patent publication US20240262826A1, “WILD TYPE KIT INHIBITORS” (Blueprint Medicines Corporation, priority 2022, published 2024).

Experiments:
[1] = biological target: wild type c-kit (Homo sapiens (Human), UniProt P10721); assay: PathScan phospho c-kit (Tyr719) sandwich ELISA in SCF-stimulated M-07e cells (pKIT assay); assay type: cell-based; conditions: ELISA assay (values not marked *)
Procedure, shortened: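 Tyr719-phosphorylated c-kit was measured by colorimetric (TMB) sandwich ELISA in lysates of M-07e cells. Cells were starved 4 h without serum or GM-CSF, dosed 60 min at 37 °C with compound (8 points, duplicate, 0.25% DMSO), and stimulated 10 min with human SCF (500 ng/mL as added). IC50 values came from 4-parameter logistic regression.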

[2] = biological target: human P-glycoprotein (P-gp, MDR1) (Homo sapiens (Human), UniProt P08183); assay: MDCK-MDR1 cell monolayer drug transport assay (P-gp efflux ratio); assay type: in vitro ADME; conditions: pH 7.4, MDCK-MDR1 cells; for efflux ratio at 2 h, 1 µM: 1 uM concentration of compound, read-out: Pgp Efflux Ratio, 1 uM; for efflux ratio at 2 h, 0.1 µM: 0.1 uM concentration of compound (denoted by **), read-out: Pgp Efflux Ratio
human P-glycoprotein (P-gp, MDR1), sequence (P08183 whole entry): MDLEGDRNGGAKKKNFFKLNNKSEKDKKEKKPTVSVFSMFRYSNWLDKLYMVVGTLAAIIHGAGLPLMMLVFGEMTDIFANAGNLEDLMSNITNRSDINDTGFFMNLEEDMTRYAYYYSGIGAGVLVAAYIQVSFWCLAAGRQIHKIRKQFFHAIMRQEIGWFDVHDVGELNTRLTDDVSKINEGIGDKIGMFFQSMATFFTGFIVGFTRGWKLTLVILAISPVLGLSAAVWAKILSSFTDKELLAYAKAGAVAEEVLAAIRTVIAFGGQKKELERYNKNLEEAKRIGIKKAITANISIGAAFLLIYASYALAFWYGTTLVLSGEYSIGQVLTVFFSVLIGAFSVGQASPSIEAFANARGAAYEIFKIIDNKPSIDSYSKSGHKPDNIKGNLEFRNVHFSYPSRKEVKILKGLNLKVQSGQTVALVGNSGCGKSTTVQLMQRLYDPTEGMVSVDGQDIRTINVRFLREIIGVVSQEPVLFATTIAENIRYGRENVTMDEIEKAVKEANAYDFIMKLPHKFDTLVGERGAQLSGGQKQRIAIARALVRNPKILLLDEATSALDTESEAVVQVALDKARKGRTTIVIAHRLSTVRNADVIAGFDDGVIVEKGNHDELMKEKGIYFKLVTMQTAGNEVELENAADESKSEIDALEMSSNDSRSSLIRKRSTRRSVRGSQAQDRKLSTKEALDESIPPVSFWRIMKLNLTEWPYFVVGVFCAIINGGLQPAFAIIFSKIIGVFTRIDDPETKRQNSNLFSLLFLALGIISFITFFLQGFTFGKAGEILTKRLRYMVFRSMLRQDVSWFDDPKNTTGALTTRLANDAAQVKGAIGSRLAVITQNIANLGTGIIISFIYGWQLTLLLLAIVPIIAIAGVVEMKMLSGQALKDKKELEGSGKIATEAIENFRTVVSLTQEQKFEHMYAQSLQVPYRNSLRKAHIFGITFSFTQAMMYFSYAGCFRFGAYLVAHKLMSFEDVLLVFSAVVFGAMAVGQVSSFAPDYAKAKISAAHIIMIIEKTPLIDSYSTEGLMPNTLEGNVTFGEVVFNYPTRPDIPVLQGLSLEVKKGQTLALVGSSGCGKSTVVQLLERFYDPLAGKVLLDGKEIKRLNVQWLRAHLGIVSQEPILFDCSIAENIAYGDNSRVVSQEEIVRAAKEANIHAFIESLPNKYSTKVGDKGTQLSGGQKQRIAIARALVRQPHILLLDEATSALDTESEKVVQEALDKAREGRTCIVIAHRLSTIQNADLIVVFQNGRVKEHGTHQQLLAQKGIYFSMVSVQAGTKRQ
Procedure, shortened: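 P-gp substrate potential tested in MDCK-MDR1 monolayers on Transwell supports, cultured 4-8 days; monolayers with TEER <42 ohms·cm2 discarded. Transport run in HBSS (10 mM HEPES, pH 7.4) at 37° C with compound working solution at 1 μM.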

wild type c-kit, sequence (P10721 26-976): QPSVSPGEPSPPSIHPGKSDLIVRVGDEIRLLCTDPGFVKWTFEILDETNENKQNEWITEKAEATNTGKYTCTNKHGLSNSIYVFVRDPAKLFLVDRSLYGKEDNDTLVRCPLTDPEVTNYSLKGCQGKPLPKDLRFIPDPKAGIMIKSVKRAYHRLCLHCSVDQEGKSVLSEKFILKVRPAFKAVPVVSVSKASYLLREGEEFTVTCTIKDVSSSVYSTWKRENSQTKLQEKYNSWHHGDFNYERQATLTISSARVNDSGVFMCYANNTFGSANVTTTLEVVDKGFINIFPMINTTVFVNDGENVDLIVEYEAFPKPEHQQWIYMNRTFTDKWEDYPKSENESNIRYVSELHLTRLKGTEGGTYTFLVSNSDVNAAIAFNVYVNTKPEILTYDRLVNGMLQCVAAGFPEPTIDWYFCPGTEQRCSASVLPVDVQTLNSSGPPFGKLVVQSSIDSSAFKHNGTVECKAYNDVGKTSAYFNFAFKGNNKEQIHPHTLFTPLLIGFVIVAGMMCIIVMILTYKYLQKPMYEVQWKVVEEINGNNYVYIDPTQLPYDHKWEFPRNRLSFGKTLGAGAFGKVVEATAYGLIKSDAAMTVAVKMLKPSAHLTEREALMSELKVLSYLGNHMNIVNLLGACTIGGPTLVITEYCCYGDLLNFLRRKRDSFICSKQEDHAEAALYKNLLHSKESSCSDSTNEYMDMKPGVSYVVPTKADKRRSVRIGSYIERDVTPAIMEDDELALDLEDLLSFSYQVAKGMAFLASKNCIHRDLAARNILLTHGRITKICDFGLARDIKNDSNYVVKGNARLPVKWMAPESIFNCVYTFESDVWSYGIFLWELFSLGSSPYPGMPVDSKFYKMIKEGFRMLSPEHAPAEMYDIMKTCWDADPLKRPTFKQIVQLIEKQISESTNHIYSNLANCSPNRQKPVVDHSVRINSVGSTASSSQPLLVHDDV

Compound	IC50 [1]	efflux ratio at 2 h, 1 µM [2]	efflux ratio at 2 h, 0.1 µM [2]
CCS(=O)(=O)N1CC(n2nnc(-c3ccc(C)c(NC(=O)c4cnn5ccccc45)c3)n2)C1 [Example 173, N-(5-(2-(1-(ethylsulfonyl)azetidin-3-yl)-2H-tetrazol-5-yl)-2-methylphenyl)pyrazolo[1,5-a]pyridine-3-carboxamide]	12 nM	3.5	–
COCCS(=O)(=O)N1CC(n2nnc(-c3ccc(C)c(NC(=O)c4cnn5ccccc45)c3)n2)C1 [Example 178, N-(5-(2-(1-((2-methoxyethyl)sulfonyl)azetidin-3-yl)-2H-tetrazol-5-yl)-2-methylphenyl)pyrazolo[1,5-a]pyridine-3-carboxamide]	17.6 nM	4.7	–
Cc1ccc(-c2nnn(C3CC3)n2)cc1NC(=O)c1cnn2ccc(-c3cnn(CC4(O)CCOCC4)c3)cc12 [Example 206, N-(5-(2-cyclopropyl-2H-tetrazol-5-yl)-2-methylphenyl)-5-(1-((4-hydroxytetrahydro-2H-pyran-4-yl)methyl)-1H-pyrazol-4-yl)pyrazolo[1,5-a]pyridine-3-carboxamide]	1.2 nM	22.6	–
Cc1ccc(-c2nnn(C3CC3)n2)cc1NC(=O)c1cnn2ccc(-c3c(C)nn(CCO)c3C)cc12 [Example 208, N-(5-(2-cyclopropyl-2H-tetrazol-5-yl)-2-methylphenyl)-5-(1-(2-hydroxyethyl)-3,5-dimethyl-1H-pyrazol-4-yl)pyrazolo[1,5-a]pyridine-3-carboxamide]	0.4 nM	4.1	–
Cc1ccc(-c2nnn(C3CC3)n2)cc1NC(=O)c1cnn2ccc(-c3cnn(CCCN4CCOCC4)c3)cc12 [Example 220, N-(5-(2-cyclopropyl-2H-tetrazol-5-yl)-2-methylphenyl)-5-(1-(3-morpholinopropyl)-1H-pyrazol-4-yl)pyrazolo[1,5-a]pyridine-3-carboxamide]	1.8 nM	12.4	–
Cc1ccc(-n2nnc(C3CC3)n2)cc1NC(=O)c1cnn2ccc(-c3cnn(CC(C)(C)O)c3)cc12 [Example 225, N-(5-(5-cyclopropyl-2H-tetrazol-2-yl)-2-methylphenyl)-5-(1-(2-hydroxy-2-methylpropyl)-1H-pyrazol-4-yl)pyrazolo[1,5-a]pyridine-3-carboxamide]	1.7 nM	3.3	–
Cc1nnn(-c2ccc(C)c(NC(=O)c3cnn4ccc(-c5cn(C[C@H]6CNCCO6)nc5C)cc34)c2)n1 [Example 230, (R)-5-(3-methyl-1-(morpholin-2-ylmethyl)-1H-pyrazol-4-yl)-N-(2-methyl-5-(5-methyl-2H-tetrazol-2-yl)phenyl)pyrazolo[1,5-a]pyridine-3-carboxamide]	0.8 nM	116	–
CC(C)(O)Cn1cc(-c2ccn3ncc(C(=O)Nc4cc(-c5nnn(C6CC6)n5)ccc4Cl)c3c2)cn1 [Example 234, N-(2-chloro-5-(2-cyclopropyl-2H-tetrazol-5-yl)phenyl)-5-(1-(2-hydroxy-2-methylpropyl)-1H-pyrazol-4-yl)pyrazolo[1,5-a]pyridine-3-carboxamide]	0.5 nM	–	3.8
Cc1nn(CCO)cc1-c1ccn2ncc(C(=O)Nc3cc(-c4nnn(C5CC5)n4)ccc3Cl)c2c1 [Example 238, N-[2-chloro-5-(2-cyclopropyl-2H-1,2,3,4-tetrazol-5-yl)phenyl]-5-[1-(2-hydroxyethyl)-3-methyl-1H-pyrazol-4-yl]pyrazolo[1,5-a]pyridine-3-carboxamide]	0.2 nM	–	5.9
Cc1cc(F)c(-c2nnn(C3CC3)n2)cc1NC(=O)c1cnn2ccc(-c3cnn(CC(C)(C)O)c3C)cc12 [Example 240, N-(5-(2-cyclopropyl-2H-tetrazol-5-yl)-4-fluoro-2-methylphenyl)-5-(1-(2-hydroxy-2-methylpropyl)-5-methyl-1H-pyrazol-4-yl)pyrazolo[1,5-a]pyridine-3-carboxamide]	0.6 nM	7.4	–
Cc1cc(F)c(-c2nnn(C3CC3)n2)cc1NC(=O)c1cnn2ccc(-c3cn(CC(C)(C)O)nc3C3CC3)cc12 [Example 241, 5-(3-cyclopropyl-1-(2-hydroxy-2-methylpropyl)-1H-pyrazol-4-yl)-N-(5-(2-cyclopropyl-2H-tetrazol-5-yl)-4-fluoro-2-methylphenyl)pyrazolo[1,5-a]pyridine-3-carboxamide]	0.2 nM	–	6.3
COC[C@@H](O)Cn1cc(-c2ccn3ncc(C(=O)Nc4cc(-c5nnn(C6CC6)n5)ccc4C)c3c2)c(C2CC2)n1 [Example 243, (S)-5-(3-cyclopropyl-1-(2-hydroxy-3-methoxypropyl)-1H-pyrazol-4-yl)-N-(5-(2-cyclopropyl-2H-tetrazol-5-yl)-2-methylphenyl)pyrazolo[1,5-a]pyridine-3-carboxamide]	0.1 nM	13.5	–

More lines, now with the values ahead:

IC50 [1]	efflux ratio at 2 h, 1 µM [2]	efflux ratio at 2 h, 0.1 µM [2]	Compound
14.8 nM	19.1	–	COCCNc1ccn2ncc(C(=O)Nc3cc(-c4nnn([C@H]5C[C@H](CO)C5)n4)c(F)cc3C)c2c1 [Example 202, N-(4-fluoro-5-(2-((1r,3r)-3-(hydroxymethyl)cyclobutyl)-2H-tetrazol-5-yl)-2-methylphenyl)-5-((2-methoxyethyl)amino)pyrazolo[1,5-a]pyridine-3-carboxamide]
10.1 nM	62.1	–	Cc1cnn(-c2ccc(C)c(NC(=O)c3cnn4ccc(-c5cnn(C[C@@H]6CNCCO6)c5)cc34)c2)n1 [Example 204, (S)—N-(2-methyl-5-(4-methyl-2H-1,2,3-triazol-2-yl)phenyl)-5-(1-(morpholin-2-ylmethyl)-1H-pyrazol-4-yl)pyrazolo[1,5-a]pyridine-3-carboxamide]
1.4 nM	16.2	–	Cc1cc(F)c(-c2nnn(C3CC3)n2)cc1NC(=O)c1cnn2ccc(-c3cnn(CC(C)(C)O)c3)cc12 [Example 207, N-(5-(2-cyclopropyl-2H-tetrazol-5-yl)-4-fluoro-2-methylphenyl)-5-(1-(2-hydroxy-2-methylpropyl)-1H-pyrazol-4-yl)pyrazolo[1,5-a]pyridine-3-carboxamide]
6.9 nM	4.3	–	Cc1nnn(-c2ccc(C)c(NC(=O)c3cnn4ccc(-c5cnn(CC(C)(C)O)c5)cc34)c2)n1 [Example 209, 5-(1-(2-hydroxy-2-methylpropyl)-1H-pyrazol-4-yl)-N-(2-methyl-5-(5-methyl-2H-tetrazol-2-yl)phenyl)pyrazolo[1,5-a]pyridine-3-carboxamide]
1.9 nM	–	5	Cc1cc(Cl)c(NC(=O)c2cnn3ccc(-c4cnn(CC(C)(C)O)c4)cc23)cc1-c1nnn(C2CC2)n1 [Example 227, N-(2-chloro-5-(2-cyclopropyl-2H-tetrazol-5-yl)-4-methylphenyl)-5-(1-(2-hydroxy-2-methylpropyl)-1H-pyrazol-4-yl)pyrazolo[1,5-a]pyridine-3-carboxamide]
1.6 nM	3.9	–	Cc1cc(Cl)c(NC(=O)c2cnn3ccc(-c4cn(CC5(O)CCOCC5)nc4C)cc23)cc1-c1nnn(C2CC2)n1 [Example 235, N-(2-chloro-5-(2-cyclopropyl-2H-tetrazol-5-yl)-4-methylphenyl)-5-(1-((4-hydroxytetrahydro-2H-pyran-4-yl)methyl)-3-methyl-1H-pyrazol-4-yl)pyrazolo[1,5-a]pyridine-3-carboxamide]
